This experiment can be described thus: Enzyme-Linked Immunosorbent Assay-ELISA: 96 Well plates were coated with 1 μg/mL of human PD-L1 (obtained from R&D) in PBS overnight at 4° C. The wells were then blocked with 2% BSA in PBS (W/V) with 0.05% TWEEN-20 for 1 hour at 37° C. The plates were washed 3 times with PBS/0.05% TWEEN-20 and the compounds were serial diluted (1:5) in dilution medium and added to the ELISA plates. Human PD-1 and biotin 0.3 μg/mL (ACRO Biosystems) were added and incubated for 1 hour at 37° C. then washed 3 times with PBS/0.05% TWEEN-20. A second block was performed with 2% BSA in PBS (W/V)/0.05% TWEEN-20 for 10 min at 37° C. and was washed 3 times with PBS/0.05% TWEEN-20. Streptavidin—HRP was added for 1 hour at 37° C. then washed 3 times with PBS/0.05% TWEEN-20. TMB substrate was added and reacted for 20 min at 37° C. A stop solution (2 N aqueous H2SO4) was added. The absorbance was read at 450 nm using a micro-plate spectrophotometer. A general note: ELISA stands for enzyme-linked immunosorbent assay.
As a reminder, the IC50 is the midpoint of a concentration-inhibition curve. The low end stands for higher potency, the high end for lower potency. For `O=C1NCCCC[C@@H](C(=O)O)NCc2cc(Cl)c(O[C@H]3CCc4c(-c5ccccc5F)cccc43)cc2OCc2cncc1c2`, the IC50 entry was “in the range around 300 nM”.
With `Cc1c(COc2cc3c(cc2Cl)CN[C@H](C(=O)O)CCCCNC(=O)CCCCO3)cccc1-c1ccccc1` the entry was “in the range around 300 nM”.
Under `Cc1c(COc2cc3c(cc2Cl)CN[C@H](C(=O)O)CCCCNC(=O)c2cncc(c2)CO3)cccc1-c1cccc(OCCCCl)c1C` stands “in the range around 10200 nM”.
With `Cc1c(COc2cc3c(cc2Cl)CN[C@H](C(=O)O)COCCNC(=O)c2cncc(c2)CO3)cccc1-c1ccccc1` the entry was “in the range around 300 nM”; with `Cc1c(COc2cc3c(cc2Cl)CN[C@H](C(=O)O)CCCNC(=O)c2cncc(c2)CO3)cccc1-c1ccccc1`, “in the range around 300 nM”; with `Cc1c(COc2cc3c(cc2Cl)CN[C@H](C(=O)O)CCCCNC(=O)c2cncc-3c2)cccc1-c1ccccc1`, “in the range around 10200 nM”.
`Cc1c(COc2cc3c(cc2Cl)CN[C@H](CC(=O)O)CCCCNC(=O)c2cncc(c2)CO3)cccc1-c1ccccc1`: the IC50 result is “in the range around 300 nM”.
Under `Cc1c(COc2cc3c(cc2Cl)CN[C@@H](CO)C(=O)NCCNC(=O)c2cncc(c2)CO3)cccc1-c1ccccc1` stands “in the range around 300 nM”.

Source of the values: ChEMBL document CHEMBL5728659, “Macrocyclic immunomodulators” (2021).
